From ChEMBL document CHEMBL3862021, “Eeyarestatin I derivatives with improved aqueous solubility” (Bioorg Med Chem Lett, 2016)
In brackets after ≈: the same amount, converted by molar mass. Activity calls are given as the source filed them. No cut-off for these calls is given here.

Tests used:
[1] = Thermodynamic solubility of the compound in DPBS after 24 hrs by LC-MS/MS analysis; assay type: physicochemical; details: read-out: Therm_solubility
[2] = target: Transitional endoplasmic reticulum ATPase (Homo sapiens) (UniProt P55072); assay: Inhibition of p97 in HEK293T cells assessed as induction of ER-stress by measuring ATF3 expression up to 40 uM after 16 hrs by immunoblot analysis; assay type: cell-based; details: HEK-293T
Transitional endoplasmic reticulum ATPase (Homo sapiens), sequence (P55072 2-806 limits assumed): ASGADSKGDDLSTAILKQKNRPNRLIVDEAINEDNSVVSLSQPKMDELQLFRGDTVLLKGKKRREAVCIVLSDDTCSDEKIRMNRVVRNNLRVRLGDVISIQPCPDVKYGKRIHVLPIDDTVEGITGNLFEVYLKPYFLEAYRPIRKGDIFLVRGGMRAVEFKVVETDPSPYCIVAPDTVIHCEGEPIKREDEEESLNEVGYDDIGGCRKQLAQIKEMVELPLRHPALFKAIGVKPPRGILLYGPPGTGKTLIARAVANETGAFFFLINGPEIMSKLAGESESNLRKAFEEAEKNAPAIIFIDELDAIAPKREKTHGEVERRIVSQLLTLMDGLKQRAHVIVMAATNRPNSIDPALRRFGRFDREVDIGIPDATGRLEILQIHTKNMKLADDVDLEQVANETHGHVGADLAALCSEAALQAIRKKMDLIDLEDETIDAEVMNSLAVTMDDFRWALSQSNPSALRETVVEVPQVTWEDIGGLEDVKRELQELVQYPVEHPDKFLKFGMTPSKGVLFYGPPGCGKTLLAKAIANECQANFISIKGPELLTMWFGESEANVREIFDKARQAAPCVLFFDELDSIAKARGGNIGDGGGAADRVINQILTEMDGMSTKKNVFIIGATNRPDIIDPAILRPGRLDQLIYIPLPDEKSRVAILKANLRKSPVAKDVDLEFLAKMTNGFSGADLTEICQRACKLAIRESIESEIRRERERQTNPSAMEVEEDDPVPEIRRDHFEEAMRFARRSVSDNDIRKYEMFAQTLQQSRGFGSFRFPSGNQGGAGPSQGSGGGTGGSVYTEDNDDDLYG

[3] = Half life in human plasma by LC-MS/MS analysis; assay type: ADME, cell-free
[4] = Antiproliferative activity against human MIAPaCa2 cells assessed as reduction in cell viability after 72 hrs by MTT assay; assay type: functional, cell-based; details: MIA PaCa-2, 72 h
[5] = Half life in mouse plasma by LC-MS/MS analysis; assay type: ADME, cell-free
[6] = Primary phase half life in mouse liver microsomes at 1 uM in presence of NADPH by LC-MS/MS analysis; assay type: ADME; details: read-out: alphat1/2
[7] = Primary phase half life in human liver microsomes at 1 uM in presence of NADPH by LC-MS/MS analysis; assay type: ADME; details: read-out: alphat1/2
[8] = Terminal phase half life in mouse liver microsomes at 1 uM in presence of UDPGA by LC-MS/MS analysis; assay type: ADME; details: read-out: beta t1/2
[9] = Terminal phase half life in human liver microsomes at 1 uM in presence of UDPGA by LC-MS/MS analysis; assay type: ADME; details: read-out: beta t1/2
[10] = Effect on endogenous p97 protein level in HEK293T cells up to 40 uM after 16 hrs by immunoblot analysis; assay type: ADME, cell-based; details: human, hek-293t
[11] = target: Transitional endoplasmic reticulum ATPase (Homo sapiens) (UniProt P55072); assay: Inhibition of p97 in HEK293T cells assessed as induction of ER-stress by measuring ATF4 expression at 20 uM after 16 hrs by immunoblot analysis; assay type: cell-based; details: HEK-293T

Row | SMILES | solubility thermodynamic at 24 h [1] | inhibition [2] | half-life [3] | EC50 [4] | half-life [5] | half-life at 1 µM [6] | half-life at 1 µM [7] | half-life at 1 µM [8] | half-life at 1 µM [9] | Activity [10] | inhibition [11]
1 | COCCOc1ccc(NC(=O)N(O)C2N(c3ccc(Cl)cc3)C(=O)N(CC(=O)N/N=C/C=C/c3ccc([N+](=O)[O-])o3)C2(C)C)cc1 (stereo not given) | 2.3 µM (≈ 1.54 µg/mL) | Active | 9.5 h | 5.4 µM | 12.5 h | 1.75 h | 2.07 h | 16.5 h | 23.1 h | Non-Toxic | Active
2 | COCCOc1ccc(N2C(=O)N(CC(=O)N/N=C/C=C/c3ccc([N+](=O)[O-])o3)C(C)(C)C2N(O)C(=O)Nc2ccc(Cl)cc2)cc1 (stereo not given) | 2.8 µM (≈ 1.88 µg/mL) | Active | 17.2 h | 6.3 µM | 15.7 h | 2.32 h | 0.53 h | 14.4 h | 57.8 h | Non-Toxic | Active
3 | COCCOc1ccc(NC(=O)N(O)C2N(c3ccc(OCCOC)cc3)C(=O)N(CC(=O)N/N=C/C=C/c3ccc([N+](=O)[O-])o3)C2(C)C)cc1 (stereo not given) | 64.2 µM (≈ 45.6 µg/mL) | – | – | 38.4 µM | – | – | – | – | – | Non-Toxic | –
